# Test system: C57BL/6 male mouse
# Assay: Novel object recognition test with restraint stress
# Format: in vivo
# Details: for preference for objects A and B on the fourth day (training day): abdominal injection 30 min before; for preference for objects A and B on the fourth day (training day) / preference for new object C on the fifth day after 24 hours: + restraint stress, mean±standard error; for preference for new object C on the fifth day after 24 hours: abdominal injection
# Method: In all experiments, C57BL/6 male mouse, a kind of B6 mouse of 8-12 weeks old, were used. The experimental groups were divided into 7 experimental groups according to whether they were stressed or not and the type and weight of injected drugs as follows. […] Immediately after each behavioral experiment, restraint stress was applied by placing the mouse in a 50 mL tube pre-pierced with about 9 pores for 90 minutes. A mouse was placed in an open-field box (40 cm×40 cm×40 cm) made of acryl for 15 minutes every day for 3 days to fit and stabilize to the box. On the training day of the fourth day, two different objects made of acryl (objects A and B) were placed at regular intervals in the box and the mice were trained to freely search objects A and B for 10 minutes. […] The search time for each object (A and C or B and C) was quantified and the preference for the object was expressed as a ratio of search time (Preference (%)=C/(A+C)*100). […] To compare the results of the said two behavioral experiments, SPSS 21.0 (SPSS Inc, Chicago, Ill.) and Student's T-test and one-way ANOVA were used for statistical analysis.
# [1] = D-serine 500 mg (second weight)
Structure (SMILES),"preference for new object C, comparison among drug groups (D-Serine 50 mg + restraint stress as printed, 24-hour results, one-way ANOVA)",preference for objects A and B on the fourth day (training day) (D-serine 50 mg (first weight)) [%],preference for new object C on the fifth day after 24 hours (D-serine 50 mg (first weight)) [%],preference for objects A and B on the fourth day (training day) [1] [%],preference for new object C on the fifth day after 24 hours [1] [%],preference for objects A and B on the fourth day (training day) (Caffeine 10 mg) [%],preference for new object C on the fifth day after 24 hours (Caffeine 10 mg) [%]
N[C@H](CO)C(=O)O [D-serine],highest preference,52.12±2.81,63.63±3.94,47.83±3.97,67.55±3.46,–,–
Cn1c(=O)c2c(ncn2C)n(C)c1=O [caffeine],–,–,–,–,–,49.92±2.75,62.06±2.27
